# Source: patent US11591365B2, “BCL9 peptides and variants thereof” (WntRx Pharmaceuticals Inc., priority 2017, dated 2023)
# *1 amine or outer side, *2 acyl side, *3 side chain or, on linkers, in order; H or OH if unused. Where a SMILES comes first, the peptide text is derived from it. Bridges are numbered along the chain shown (N, C = ends). [ ]: non-standard residue; d: D form. Azetidine3carboxylic = O=C(C1CN([*:1])C1)[*:2]; 2Nal = N[C@@H](Cc1ccc2ccccc2c1)C(=O)O; NMeCha = CN[C@@H](CC1CCCCC1)C(=O)O; NMeR = CN[C@@H](CCCNC(=N)N)C(=O)O; tBuAla = CC(C)(C)C[C@H](N)C(=O)O; NMeQ = CN[C@@H](CCC(N)=O)C(=O)O; Cha = N[C@@H](CC1CCCCC1)C(=O)O; Cba = N[C@@H](CC1CCC1)C(=O)O; Tle = CC(C)(C)[C@H](N)C(=O)O; S5 = C=CCCC[C@](C)(N)C(=O)O
# Tested on: Colo320DM
# Experiment: Colo320DM cell viability
# Format: cell-based, human
# Description: In some embodiments, a polypeptide described herein inhibits binding of BLC9 to β-catenin when assessed in a cell-viability assay. In some embodiments, the cell-viability assay is a CellTiterGlo luminescent assay, wherein the viability of cells is quantitatively measured. Various cell lines, transformed cell lines or primary cells derived from a healthy subject or subject suffering from a disease can be used in this assay.
row,Compound,IC50 [µM]
1,"CC[C@H](C)[C@@H]1NC(=O)[C@@](C)(NC(=O)[C@H](CCCNC(=N)N)NC(=O)[C@H](CC(C)C)NC(=O)[C@@H](NC(=O)[C@H](CCC(N)=O)NC(=O)[C@H](CC(C)C)NC(=O)[C@H](CO)NC(=O)[C@H](CCCNC(=N)N)NC(=O)[C@H](CCC(N)=O)NC(=O)[C@H](CCCNC(=N)N)NC(=O)[C@H](Cc2c[nH]cn2)NC(C)=O)[C@@H](C)O)CCCC=CCCC[C@@](C)(C(=O)N[C@@H](CC(C)(C)C)C(=O)N[C@@H](Cc2ccc3ccccc3c2)C(N)=O)NC(=O)[C@H](CCCNC(=N)N)NC(=O)[C@H](CCC(N)=O)NC1=O [SEQ ID NO: 191, HRQRSLQTLRXIQRX(β-tBu-Ala)(2-Nal)] (Ac-HRQRSLQTLR[S5]IQR[S5][tBuAla][2Nal]-NH2; staple 11-15)",2.87
2,"CC[C@H](C)[C@@H]1NC(=O)[C@@](C)(NC(=O)[C@H](CCCNC(=N)N)NC(=O)[C@H](CC(C)C)NC(=O)[C@@H](NC(=O)[C@H](CCC(N)=O)NC(=O)[C@H](CC(C)C)NC(=O)[C@H](CO)NC(=O)[C@H](CCCNC(=N)N)NC(=O)[C@H](CCC(N)=O)NC(=O)[C@H](CCCNC(=N)N)NC(=O)[C@H](Cc2c[nH]cn2)NC(C)=O)[C@@H](C)O)CCCC=CCCC[C@@](C)(C(=O)N[C@@H](CC2CCCCC2)C(=O)N[C@@H](Cc2ccc3ccccc3c2)C(N)=O)NC(=O)[C@H](CCCNC(=N)N)N(C)C(=O)[C@H](CCC(N)=O)NC1=O [SEQ ID NO: 190, HRQRSLQTLRXIQ(N-MeArg)X(Cha)(2-Nal)] (Ac-HRQRSLQTLR[S5]IQ[NMeR][S5][Cha][2Nal]-NH2; staple 11-15)",5.89
3,"CC[C@H](C)[C@@H]1NC(=O)[C@@](C)(NC(=O)[C@H](CCCNC(=N)N)NC(=O)[C@H](CC(C)C)NC(=O)[C@@H](NC(=O)[C@H](CCC(N)=O)NC(=O)[C@H](CC(C)C)NC(=O)[C@H](CO)NC(=O)[C@H](CCCNC(=N)N)NC(=O)[C@H](CCC(=O)O)NC(=O)[C@H](CCCNC(=N)N)NC(=O)[C@H](Cc2c[nH]cn2)NC(C)=O)[C@@H](C)O)CCCC=CCCC[C@@](C)(C(=O)N[C@@H](CC(C)C)C(=O)N[C@@H](Cc2ccc3ccccc3c2)C(N)=O)NC(=O)[C@H](C)NC(=O)[C@H](CCC(N)=O)NC1=O [SEQ ID NO: 28, HRERSLQTLRXIQAXL(2-Nal)] (Ac-HRERSLQTLR[S5]IQA[S5]L[2Nal]-NH2; staple 11-15)",3.24
4,"CC[C@H](C)[C@@H]1NC(=O)[C@@](C)(NC(=O)[C@H](CCCNC(=N)N)NC(=O)[C@H](CC(C)C)NC(=O)[C@@H](NC(=O)[C@H](CCC(N)=O)NC(=O)[C@H](CC(C)C)NC(=O)[C@H](CO)NC(=O)[C@H](CCCNC(=N)N)NC(=O)[C@H](CCC(=O)O)NC(=O)[C@H](CCCNC(=N)N)NC(C)=O)[C@@H](C)O)CCCC=CCCC[C@@](C)(C(=O)N[C@@H](CC2CCC2)C(=O)N[C@@H](Cc2ccc3ccccc3c2)C(N)=O)NC(=O)[C@H](CCCNC(=N)N)NC(=O)[C@H](CCC(N)=O)NC1=O [SEQ ID NO: 13, RERSLQTLRXIQRX(CBA)(2-Nal)] (Ac-RERSLQTLR[S5]IQR[S5][Cba][2Nal]-NH2; staple 10-14)",1.61
5,"CC[C@H](C)[C@@H]1NC(=O)[C@@](C)(NC(=O)[C@H](CCCNC(=N)N)NC(=O)[C@H](CC(C)C)NC(=O)[C@@H](NC(=O)[C@H](CCC(N)=O)NC(=O)[C@H](CC(C)C)NC(=O)[C@H](CO)NC(=O)[C@H](CCCNC(=N)N)NC(=O)[C@H](CCC(=O)O)NC(=O)[C@H](CCCNC(=N)N)NC(C)=O)[C@@H](C)O)CCCC=CCCC[C@@](C)(C(=O)N[C@@H](CC(C)C)C(=O)N[C@@H](Cc2ccc3ccccc3c2)C(N)=O)NC(=O)[C@H](CCCNC(=N)N)NC(=O)[C@H](CCC(N)=O)NC1=O [SEQ ID NO: 5, RERSLQTLRXIQRXL(2-Nal)] (Ac-RERSLQTLR[S5]IQR[S5]L[2Nal]-NH2; staple 10-14)",6.8
6,"CC[C@H](C)[C@@H]1NC(=O)[C@@](C)(NC(=O)[C@H](CCCNC(=N)N)NC(=O)[C@H](CC(C)C)NC(=O)[C@@H](NC(=O)[C@H](CCC(N)=O)NC(=O)[C@H](CC(C)C)NC(=O)[C@H](CO)NC(=O)[C@H](CCCNC(=N)N)NC(=O)[C@H](CCC(N)=O)NC(=O)[C@H](CCCNC(=N)N)NC(=O)[C@H](Cc2c[nH]cn2)NC(C)=O)[C@@H](C)O)CCCC=CCCC[C@@](C)(C(=O)N2CC(C(=O)N[C@@H](Cc3ccc4ccccc4c3)C(N)=O)C2)NC(=O)[C@H](CCCNC(=N)N)NC(=O)[C@H](CCC(N)=O)NC1=O [SEQ ID NO: 178, HRQRSLQTLRXIQRX(Aze)(2-Nal)] (Ac-HRQRSLQTLR[S5]IQR[S5][Azetidine3carboxylic][2Nal]-NH2; staple 11-15)",> 5
7,"CC[C@H](C)[C@@H]1NC(=O)[C@@](C)(NC(=O)[C@H](CCCNC(=N)N)NC(=O)[C@H](CC(C)C)NC(=O)[C@@H](NC(=O)[C@H](CCC(N)=O)N(C)C(=O)[C@H](CC2CCCCC2)N(C)C(=O)[C@H](CO)NC(=O)[C@H](CCCNC(=N)N)NC(=O)[C@H](CCC(N)=O)NC(=O)[C@H](CCCNC(=N)N)NC(=O)[C@H](Cc2c[nH]cn2)NC(C)=O)[C@@H](C)O)CCCC=CCCC[C@@](C)(C(=O)N[C@@H](CC2CCCCC2)C(=O)N[C@@H](Cc2ccc3ccccc3c2)C(N)=O)NC(=O)[C@H](CCCNC(=N)N)NC(=O)[C@H](CCC(N)=O)NC1=O [SEQ ID NO: 186, HRQRS(N-MeCha)(N-MeGln)TLRXIQRX(Cha)(2-Nal)] (Ac-HRQRS[NMeCha][NMeQ]TLR[S5]IQR[S5][Cha][2Nal]-NH2; staple 11-15)",2.23
8,"CC[C@H](C)[C@@H]1NC(=O)[C@@](C)(NC(=O)[C@H](CCCNC(=N)N)NC(=O)[C@H](CC(C)C)NC(=O)[C@]2(C)CCCC=CCCC[C@](C)(NC(=O)[C@H](CCC(=O)O)NC(=O)[C@H](CCCNC(=N)N)NC(C)=O)C(=O)N[C@@H](CO)C(=O)N[C@@H](CC(C)C)C(=O)N[C@@H](CCC(N)=O)C(=O)N2)CCCC=CCCC[C@@](C)(C(=O)N[C@@H](CC(C)C)C(=O)N[C@@H](Cc2ccc3ccccc3c2)C(N)=O)NC(=O)[C@H](CCCNC(=N)N)NC(=O)[C@H](CCC(N)=O)NC1=O [SEQ ID NO: 39, REXSLQXLRZIQRZL(2-Nal)] (Ac-RE[S5]SLQ[S5]LR[S5]IQR[S5]L[2Nal]-NH2; staple 3-7, 10-14)",0.56
9,"CC[C@H](C)[C@@H]1NC(=O)[C@@](C)(NC(=O)[C@H](CCCNC(=N)N)NC(=O)[C@H](CC(C)C)NC(=O)[C@@H](NC(=O)[C@H](CCC(N)=O)NC(=O)[C@H](CC(C)C)NC(=O)[C@H](CO)NC(=O)[C@H](CCCNC(=N)N)NC(=O)[C@H](CCC(=O)O)NC(=O)[C@H](CCCNC(=N)N)NC(=O)[C@H](Cc2c[nH]cn2)NC(=O)[C@H](CCC(=O)O)NC(C)=O)[C@@H](C)O)CCCC=CCCC[C@@](C)(C(=O)N[C@@H](CC(C)C)C(=O)N[C@@H](Cc2ccc3ccccc3c2)C(N)=O)NC(=O)[C@H](CCCNC(=N)N)NC(=O)[C@H](CCC(N)=O)NC1=O [SEQ ID NO: 7, EHRERSLQTLRXIQRXL(2-Nal)] (Ac-EHRERSLQTLR[S5]IQR[S5]L[2Nal]-NH2; staple 12-16)",9.1
10,"CC[C@H](C)[C@@H]1NC(=O)[C@@](C)(NC(=O)[C@H](CCCNC(=N)N)N(C)C(=O)[C@H](CC(C)C)NC(=O)[C@@H](NC(=O)[C@H](CCC(N)=O)NC(=O)[C@H](CC(C)C)NC(=O)[C@H](CO)NC(=O)[C@H](CCCNC(=N)N)NC(=O)[C@H](CCC(=O)O)NC(=O)[C@H](CCCNC(=N)N)NC(=O)[C@H](Cc2c[nH]cn2)NC(C)=O)[C@@H](C)O)CCCC=CCCC[C@@](C)(C(=O)N[C@@H](CC2CCC2)C(=O)N[C@@H](Cc2ccc3ccccc3c2)C(=O)O)NC(=O)[C@H](CCCNC(=N)N)NC(=O)[C@H](CCC(N)=O)NC1=O [SEQ ID NO: 152, HRERSLQTL(N-methylR)XIQRX(CBA)(2-Nal)] (Ac-HRERSLQTL[NMeR][S5]IQR[S5][Cba][2Nal]-OH; staple 11-15)",> 5
11,"CC[C@H](C)[C@@H]1NC(=O)[C@@](C)(NC(=O)[C@H](CCCNC(=N)N)NC(=O)[C@H](CC(C)C)NC(=O)[C@@H](NC(=O)[C@H](CCC(N)=O)NC(=O)[C@H](CC(C)C)NC(=O)[C@H](CO)NC(=O)[C@H](CCCNC(=N)N)NC(=O)[C@H](CCC(=O)O)NC(=O)[C@H](CCC(N)=O)NC(=O)[C@H](Cc2c[nH]cn2)NC(C)=O)[C@@H](C)O)CCCC=CCCC[C@@](C)(C(=O)N[C@@H](CC(C)C)C(=O)N[C@@H](Cc2ccc3ccccc3c2)C(N)=O)NC(=O)[C@H](CCCNC(=N)N)NC(=O)[C@H](CCC(N)=O)NC1=O [SEQ ID NO: 11, HQERSLQTLRXIQRXL(2-Nal)] (Ac-HQERSLQTLR[S5]IQR[S5]L[2Nal]-NH2; staple 11-15)",1.51
12,"CC[C@H](C)[C@@H]1NC(=O)[C@@](C)(NC(=O)[C@H](CCCNC(=N)N)NC(=O)[C@H](CC(C)C)NC(=O)[C@@H](NC(=O)[C@H](CCC(N)=O)NC(=O)[C@H](CC(C)C)NC(=O)[C@H](CO)NC(=O)[C@H](CCCNC(=N)N)NC(=O)[C@H](CCC(N)=O)N(C)C(=O)[C@H](CCCNC(=N)N)NC(=O)[C@H](Cc2c[nH]cn2)NC(C)=O)[C@@H](C)O)CCCC=CCCC[C@@](C)(C(=O)N[C@H](C(=O)N[C@@H](Cc2ccc3ccccc3c2)C(N)=O)C(C)(C)C)NC(=O)[C@H](CCCNC(=N)N)NC(=O)[C@H](CCC(N)=O)NC1=O [SEQ ID NO: 194, HR(N-MeGln)RSLQTLRXIQRX(Tle)(2-Nal)] (Ac-HR[NMeQ]RSLQTLR[S5]IQR[S5][Tle][2Nal]-NH2; staple 11-15)",3.75
13,"CC[C@H](C)[C@@H]1NC(=O)[C@@](C)(NC(=O)[C@H](CCCNC(=N)N)NC(=O)[C@H](CC(C)C)NC(=O)[C@@H](NC(=O)[C@H](CCC(N)=O)NC(=O)[C@H](CC(C)C)NC(=O)[C@H](CO)NC(=O)[C@H](CCCNC(=N)N)NC(=O)[C@H](CCC(=O)O)NC(=O)[C@H](CCCNC(=N)N)NC(=O)[C@H](Cc2c[nH]cn2)NC(=O)[C@H](CCC(=O)O)NC(C)=O)[C@@H](C)O)CCCC=CCCC[C@@](C)(C(=O)N[C@@H](CC2CCC2)C(=O)N[C@@H](Cc2ccc3ccccc3c2)C(N)=O)NC(=O)[C@H](CCCNC(=N)N)NC(=O)[C@H](CCC(N)=O)NC1=O [SEQ ID NO: 9, EHRERSLQTLRXIQRX(CBA)(2-Nal)] (Ac-EHRERSLQTLR[S5]IQR[S5][Cba][2Nal]-NH2; staple 12-16)",1.9
